Data set [1] concerns DENV2. As to the kind of experiment: DENV2-induced cytopathic effect (CPE) reduction screening in Vero E6 cells. In kind it is cell-based, Dengue virus type 2. The conditions noted are these: for inhibition at 10 µM: Dengue virus. As to the method:
(§1) In the antiviral screening assay, each tested GL conjugate at 10 μM was used to survey the anti-DENV activity in Vero E6 cells using cytopathic effect (CPE) and infectivity reduction assays as described in our prior report. In CPE and infectivity reduction assays, Vero E6 cells were infected by DENV2 at an MOI of 0.005 and simultaneously treated 10 μM of indicated GL conjugate for 96 h, and then photographed by microscope for examining the levels of DENV2-induced CPE in infected cells treated with or without GL conjugate. Meanwhile, the cells were further performed using immunofluorescence assay (IFA) with anti-DENV NS4B antibodies (GeneTex, Inc., Hsinchu, Taiwan) and anti-rabbit IgG antibodies conjugated with AF555 (ThermoFisher, Waltham, MA, USA) plus DAPI (4′,6-diamidino-2-phenylindole) nuclear staining. Finally, the DENV-2 infectivity was measured according to the ratio of DENV NS4B-positive cells to DAPI-stained cells in the well of mock-treated or treated cells, as described in [45, 59, 60].

Data set [2] has as its system DENV2. Nature of the data set: Time-of-addition/compound removal assay with DENV2 in Vero E6 cells. Format: cell-based, Dengue virus type 2. The conditions noted are these: time-of-addition/removal, Vero E6 cells. As for the experimental part:
Figure 5 Time-of-addition and removal assay for analyzing antiviral action of compounds 3 (A), 6 (B), 11 (C), and 21 (D) in Vero E6 cells. In the attachment mode, cells were pre-cooled and incubated with fresh-prepared mixtures of active compounds with DENV2 at 4 °C for 1 h. After the removal of the mixtures, the cells were kept at 37 °C for 96 h (a cycle of viral replication) and then were performed by immunofluorescent assay plus DAPI staining. In entry and post-entry modes, cells were infected with DENV2 and treated with the compounds simultaneously (the entry stage) or 1-h post-infection (post-entry stage). After a 1 h incubation period, the virus/compound mixture was removed; the cell monolayer was washed with PBS and cultured for 96 h and then subjected to immunofluorescence staining and DAPI. Finally, the inhibition percentage of DENV2 infectivity was calculated as follows: 1-(percentage of NS4B positivity in treated cells/percentage of NS4B positivity in mock-treated cells). *** p < 0.001 compared with the other two antiviral action modes.
The time-of-addition assays consisted of three modes including attachment treatment/removal, entry-treatment/removal, and post-entry treatment/removal modes. In the attachment-treatment/removal mode, Vero E6 cells monolayer in 6-well plate was placed at 4 °C for 2 h and incubated with the fresh-prepared mixture of DENV-2 (MOI = 0.005) with the active compound at indicated concentrations for 2 h at 4 °C, and then washed with phosphate-buffered saline (PBS). In the entry-treatment/removal mode, Vero E6 cells were simultaneously treated with the active compound and infected DENV-2 (MOI = 0.005) in 6-well plates, incubated for 1 h at 37 °C, and then washed with PBS. In the post-entry treatment/removal mode, the cells were infected with DENV-2 for 1 h at 37 °C, treated with the active compounds at indicated concentrations for 1 h at 37 °C, respectively, and then washed by PBS. After active compound removal (washout), the cells were incubated at 37 °C for 96 h, and then were analyzed by immunofluorescent and DAPI staining assay for determining the residual DENV-2 infectivity, as described above. The inhibitory activity of the transient treatment by active compounds on attachment, entry, and post-entry stages of DENV replication in vitro was determined based on the residual infectivity.

A short description of data set [3]: MTT cytotoxicity assay in A549 cells. Format: cell-based. The conditions noted are these: human. As for the experimental part:
(§2) Vero E6 cells and A549 cells (5 × 10^3 cells/well) were treated with the serial dilution of GL conjugates at 0, 0.1, 10, 20, and 50 μM for examining the in vitro cytotoxicity of tested compounds. After 96-h incubation at 37 °C, the cells were incubated with MTT (3-(4,5-Dimethylthiazol-2-yl)-2,5-Diphenyltetrazolium Bromide) solution for another 4 h incubation, mixed with DMSO for 15 min after the removal of media, and then measured the absorbance at 570 nm. The viability (%) of treated cells was quantified according to the reduced ability of MTT. Finally, the concentration for reducing 50% cell viability (the 50% cytotoxic concentration, CC50) was determined by regression analysis of the concentration–response survival curve.

For data set [4], the system named is DENV1 and DENV2. Nature of the data set: DENV infectivity inhibition, summary over DENV1 and DENV2 in Vero E6 and A549 cells. In kind it is cell-based, Dengue virus. The conditions noted are these: Dengue virus, range over DENV1 and DENV2, Vero E6 and A549 cells; read-out: IC50 in DENV infectivity (range over assays).
Source text: as §1, with “In the antiviral screening assay, each tested GL conjugate at 10 μM was used to survey the anti-DENV activity in Vero E6 cells using cytopathic effect (CPE) and infectivity reduction assays as described in our prior report.” left out, “[…],” for “Vero E6 cells were infected by DENV2 at an MOI of 0.005 and simultaneously treated 10 μM of indicated GL conjugate for 96 h,”

In data set [5] the test system is DENV1. As to the kind of experiment: DENV1 infectivity inhibition assay in Vero E6 cells. Format: cell-based. The conditions noted are these: Dengue virus, DENV1, Vero C1008, read-out: IC50 in the DENV1 infectivity inhibition assay. As for the experimental part:
as §1
Supplemental Figure S25. Infectivity inhbition of DENV1 in Vero E6 cells by active GL conjugates. Cells were infected with DENV1 in the presence and absence of Compounds 3, 6, 11, and 21 at the concentrations of 0.1, 1, and 10 μM, respectively. Treated/infected Vero E6 cells were also analyzed using immunofluorescence staining with anti-DENV2 NS4B antibodies.
Residual infectivity was discovered by the ratio of DENV2 NS4B positive cells to total cells stained with DAPI, and relative inhibition activity was determined based on full infectivity with the subtraction of its residual infectivity.
(1 picture or pasted object on this page, not shown here)

In data set [6] the test system is DENV2. As to the kind of experiment: DENV2 infectivity inhibition (anti-NS4B immunofluorescence) in Vero E6 cells. Format: cell-based, Dengue virus type 2. The note with it: for inhibition at 10 µM: Vero C1008, 10 μM compound, DENV2, Vero E6 cells, 96 h, read-out: Inhibition (%) at 10 μM (reduction of NS4B-positive cells).
Source text: as §1, with “In the antiviral screening assay, each tested GL conjugate at 10 μM was used to survey the anti-DENV activity in Vero E6 cells using cytopathic effect (CPE) and infectivity reduction assays as described in our prior report.” left out, “[…],” for “Vero E6 cells were infected by DENV2 at an MOI of 0.005 and simultaneously treated 10 μM of indicated GL conjugate for 96 h,”

A short description of data set [7]: MTT cytotoxicity assay in Vero E6 cells. In kind it is cell-based. The conditions noted are these: African green monkey. As for the experimental part:
as §2
In general terms: Tetrazolium dyes change colour on reduction, which living cells bring about.

The subject of data set [8] is DENV2. As to the kind of experiment: DENV2 infectivity inhibition (anti-NS4B immunofluorescence) in A549 cells. Format: cell-based, Dengue virus type 2.
The mark [9] stands for this setting: 10 μM compound, DENV2, Vero E6 cells, 96 h.
Where [10] appears, read: Vero C1008, 10 μM compound, DENV2, Vero E6 cells, 96 h, read-out: CPE Reduction at 10 μM.

The source of these data is article PMC9499324, “Glycyrrhizic Acid Derivatives Bearing Amino Acid Residues in the Carbohydrate Part as Dengue Virus E Protein Inhibitors: Synthesis and Antiviral Activity” (International Journal of Molecular Sciences, 2022).

For `COC(=O)[C@@H](NC(=O)[C@H]1O[C@@H](O[C@H]2[C@H](OC3CC[C@@]4(C)C(CC[C@]5(C)C4C(=O)C=C4C6C[C@@](C)(C(=O)O)CC[C@]6(C)CC[C@]45C)C3(C)C)O[C@H](C(=O)N[C@H](C(=O)OC)C(C)C)[C@@H](O)[C@@H]2O)[C@H](O)[C@@H](O)[C@@H]1O)C(C)C` (stereo partly drawn) [Compound 2, 3-O-{2-O-[N-(β-D-Glucopyranosyluronoyl)-L-valinemethyl ester]-N-(β-D-glucopyranosyluronoyl)-L-valinemethyl ester}-(3β, 20β)-11-oxo-30-norolean-12-ene-30-oic Acid], the “CPE Reduction at 10 μM” value in data set [1] (setting [9]) was “−”.
Turning to `CC[C@H](C)[C@H](NC(=O)[C@H]1O[C@@H](O[C@H]2[C@H](OC3CC[C@@]4(C)C(CC[C@]5(C)C4C(=O)C=C4C6C[C@@](C)(C(=O)O)CC[C@]6(C)CC[C@]45C)C3(C)C)O[C@H](C(=O)N[C@H](C(=O)OC)[C@@H](C)CC)[C@@H](O)[C@@H]2O)[C@H](O)[C@@H](O)[C@@H]1O)C(=O)OC` (stereo partly drawn) [Compound 4, 3-O-{2-O-[N-(β-D-Glucopyranosyluronoyl)-L-isoleucinemethyl ester]-N-(β-D-glucopyranosyluronoyl)-L-isoleucinemethyl ester}-(3β, 20β)-11-oxo-30-norolean-12-ene-30-oic Acid], the “CPE Reduction at 10 μM” value in data set [1] (setting [9]) is listed as “−”.
As usually defined, the CC50 is the concentration giving 50% cytotoxicity. One may read the IC50 as the concentration that inhibits the measured activity by half. Turning to `COC(=O)[C@H](Cc1ccc(O)cc1)NC(=O)[C@H]1O[C@@H](O[C@H]2[C@H](OC3CC[C@@]4(C)C(CC[C@]5(C)C4C(=O)C=C4C6C[C@@](C)(C(=O)O)CC[C@]6(C)CC[C@]45C)C3(C)C)O[C@H](C(=O)N[C@@H](Cc3ccc(O)cc3)C(=O)OC)[C@@H](O)[C@@H]2O)[C@H](O)[C@@H](O)[C@@H]1O` (stereo partly drawn) [Compound 6, 3-O-{2-O-[N-(β-D-glucopyranosyluronoyl)-L-tyrosinemethyl ester]-N-(β-D-glucopyranosyluronoyl)-L-tyrosinemethyl ester}-(3β,20β)-11-oxo-30-noroleane-12-ene-30-oic acid], the “Stage of DENV2 replication affected (attachment, entry, post-entry modes)” value in data set [2] is reported as “predominantly impeded the post-entry stage”. In addition, the CC50 at 96 h in data set [3] and in data set [7] was more than 100 µM each time. Besides, the half-inhibitory concentration (IC50) in data set [4] is 0.1 to 5.98 µM; in data set [5], less than 0.1 µM; in data set [6] (Dengue virus, DENV2, Vero C1008, read-out: Inhibition of DENV2 Infectivity (IC50, μM), Vero E6 cells) it was 6 µM; in data set [6] (Vero E6 cells, read-out: Inhibition of DENV2 Infectivity (IC50)), 5.98 ± 0.41 µM; in data set [8] (Dengue virus) it was less than 0.1 µM. Further, the inhibition at 10 µM in data set [6] (Dengue virus) is 94%; in data set [1] (setting [10]), 75 to 100%. Besides, the “Selectivity Index (CC50/ IC50)” value was more than 16.7 in data set [6] (Vero E6 cells, DENV2) and more than 1000 in data set [8].
Consider `COC(=O)[C@@H](Cc1ccc(O)cc1)NC(=O)[C@H]1O[C@@H](O[C@H]2[C@H](OC3CC[C@@]4(C)C(CC[C@]5(C)C4C(=O)C=C4C6C[C@@](C)(C(=O)O)CC[C@]6(C)CC[C@]45C)C3(C)C)O[C@H](C(=O)N[C@H](Cc3ccc(O)cc3)C(=O)OC)[C@@H](O)[C@@H]2O)[C@H](O)[C@@H](O)[C@@H]1O` (stereo partly drawn) [Compound 7, 3-O-{2-O-[N-(β-D-Glucopyranosyluronoyl)-D-tyrosinemethyl ester]-N-(β-D-glucopyranosyluronoyl)-D-tyrosinemethyl ester}-(3β, 20β)-11-oxo-30-noroleane-12-ene-30-oic Acid], for which the inhibition at 10 µM in data set [6] (Dengue virus) is 51.7%; in data set [1] (DENV2, Vero C1008, read-out: CPE inhibition), 25 to 50%; in data set [1] (setting [10]), 25 to 50%.
For the compound `COC(=O)[C@H](CCSC)NC(=O)[C@H]1O[C@@H](O[C@H]2[C@H](OC3CC[C@@]4(C)C(CC[C@]5(C)C4C(=O)C=C4C6C[C@@](C)(C(=O)O)CC[C@]6(C)CC[C@]45C)C3(C)C)O[C@H](C(=O)N[C@@H](CCSC)C(=O)OC)[C@@H](O)[C@@H]2O)[C@H](O)[C@@H](O)[C@@H]1O` (stereo partly drawn) [Compound 8, 3-O-{2-O-[N-(β-D-Glucopyranosyluronoyl)-L-methioninemethyl ester]-N-(β-D-glucopyranosyluronoyl)-L-methioninemethyl ester}-(3β, 20β)-11-oxo-30-noroleane-12-ene-30-oic Acid], the inhibition at 10 µM in data set [6] (Dengue virus) was 51.6%; in data set [1] (setting [10]), 25 to 50%.
Take `CCOC(=O)CCNC(=O)[C@H]1O[C@@H](O[C@H]2[C@H](OC3CC[C@@]4(C)C(CC[C@]5(C)C4C(=O)C=C4C6C[C@@](C)(C(=O)O)CC[C@]6(C)CC[C@]45C)C3(C)C)O[C@H](C(=O)NCCC(=O)OCC)[C@@H](O)[C@@H]2O)[C@H](O)[C@@H](O)[C@@H]1O` (stereo partly drawn) [Compound 15, 3-O-{2-O-[N-(β-D-Glucopyranosyluronoyl)-β-alanineethyl ester]-N-(β-D-glucopyranosyluronoyl)-β-alanineethyl ester}-(3β, 20β)-11-oxo-30-noroleane-12-ene-30-acid]: the values for the inhibition at 10 µM in data set [6] (Dengue virus) and in data set [1] (setting [10]) were 53.6% and 25 to 50%, respectively.
In the case of `CCOC(=O)[C@@H](Cc1ccccc1)NC(=O)CNC(=O)[C@H]1O[C@@H](O[C@H]2[C@H](OC3CC[C@@]4(C)C(CC[C@]5(C)C4C(=O)C=C4C6C[C@@](C)(C(=O)O)CC[C@]6(C)CC[C@]45C)C3(C)C)O[C@H](C(=O)NCC(=O)N[C@H](Cc3ccccc3)C(=O)OCC)[C@@H](O)[C@@H]2O)[C@H](O)[C@@H](O)[C@@H]1O` (stereo partly drawn) [Compound 16, 3-O-{2-O-[N-(β-D-Glucopyranosyluronoyl)-glycyl-L-phenylalanineethyl ester]-N-(β-D-glucopyranosyluronoyl)-glycyl-L-phenylalanineethyl ester}-(3β,20β)-11-oxo-30-noroleane-12-ene-30-acid], the inhibition at 10 µM in data set [6] (Dengue virus) is 63.8%; in data set [1] (setting [10]) it was 50 to 75%.
